Results reported in patent US5942521A, “Quinolinone derivative and anti-allergic agent with said quinolinone derivative as the active ingredient” (Dainippon Ink and Chemicals, Inc., priority 1996, dated 1999).

Legend:
Format in all cases: in vivo
[1] = system: contact dermatitis induced by picryl chloride; test: Effect on contact dermatitis induced by picryl chloride in mice; settings: Mus musculus, po, read-out: Inhibition (%) of increase of ear thickness; for inhibition in vivo at 20 mg/kg: test compounds, 20 mg/kg p.o. 12 hours after challenge, ear thickness at 24 hours
Experimental: Effect on contact dermatitis induced by picryl chloride in mice
The delayed type hypersensitization is inhibited by steroid, but can not be effected by known anti-allergic agents. In the following, the method of the pharmacological test will be explained.
Method: Mice, shaved their abdominal skin on previous day, were immunized by applying 0.1 ml of acetone containing 7 mg of picryl chloride to the skin of the abdomen. 7 days after immunization, the thickness of the ear was measured with a dial thickness gauge, then mice were challenged by painting […] of 1% picryl chloride olive oil solution to each side skin of left ear. 24 hours after challenge, the thickness of the left ear was measured again. The compounds of the present invention (test compounds) suspended in 0.5% MC were forcibly administered orally at a dose of 20 mg/kg 12 hours after challenge. As vehicle control group, only 0.5% MC solution was administered orally, and as positive control group, Prednisolone, steroid hormone, was administered orally at a dose of 10 mg/kg and as negative control group, Tranilast was administered orally at a dose of 200 mg/kg.
Increase (%)=(A-B)/B×100 (Equation 2)
A: thickness of the ear at 24 hours after challenge
B: thickness of the ear before challenge
Inhibition (%)=(C-D)/C×100 (Equation 3)
C: The increase (%) in vehicle control group
D: The increase (%) in test compounds group, positive control group

[2] = system: immediate type asthmatic response; test: Effect on experimental immediate type asthma model in guinea pigs; settings: airway resistance 1 minute after challenge
Excerpt: (§1) Effect on experimental immediate and delayed type asthma model in guinea pigs
(§2) The asthma is typical allergic disease and we carried out this pharmacological test by experimental asthmatic model in guinea pigs in order to confirm that the compounds of the present invention, compound 21, 41 and 46, suppress immediate and delayed type asthmatic response. In the following, the method of the pharmacological test will be explained.
(§3) Method: Male hartley guinea pigs were sensitized by exposured aerosolized ovalbumine (OVA) (1% in saline) for 10 minutes per a day at eight times. The aerosol was generated by an ultrasonic nebulizer (NE-U12, Omuron inc.). One week after final sensitization, the animals were challenged with inhalation of OVA (2% in saline) for 5 minutes. The animals were pretreated with metyrapone (10 mg/kg, i.v.) at 1 and 4 hours before the challenge, and pyrilamine (10 mg/kg, i.p.) at 30 minutes before the challenge. airway resistance in the conscious animals were measured for 1 minute with PULMOS-1(made in Medical Interface Project Station Inc.) at 1 minute, 2, 4, 5, 6, 7, 8 and 23 to 24 hours after the challenge. Compound 21, 41 and 46 (test compound) suspended in 0.5% methylcellulose (MC) solution were given orally at doses of 5, 10 and 20 mg/kg 1 hour before and 3 hours after the challenge. As a positive control group, Prednisolone was given orally at a dose of 10 mg/kg 2 hours and 16 hours before the challenge. As vehicle control group, only 0.5% MC solution was given orally.
(§4) The evaluation of the effect of the compounds on immediate and delayed type asthmatic response was undertaken with percentage of change in airway resistance 1 minute after the challenge and the area under the response curve for percentage of change in airway resistance between 4 and 8 hours after the challenge, respectively. The inhibition (%) of the compounds for immediate and delayed type asthmatic response was calculated according to equation 4 and the result was shown in table 3. Each experimental group consisted of 8 guinea pigs.
(§5) Inhibition (%)=(A-B)/A×100 (equation 4)
(§6) A: percentage of change in airway resistance in vehicle control group
(§7) B: percentage of change in airway resistance in test compound group or positive control group

[3] = system: delayed type asthmatic response; test: Effect on experimental delayed type asthma model in guinea pigs; settings: AUC of airway resistance 4-8 hours after challenge
Excerpt: as §1, §2, §3, §4, §5, §6, §7

[4] = system: passive cutaneous anaphylaxis (PCA) reaction; test: Effect on homologous passive cutaneous anaphylaxis (PCA) reaction in rats; settings: Rattus norvegicus, po, 0.5 h; test compounds, 100 mg/kg p.o., 1 hour before induction of anaphylaxis, male wistar rats
Experimental: Effect on homologous passive cutaneous anaphylaxis (PCA) reaction in rats
This experimental animal model is caused by immediate type allergic reaction, namely, antigen-antibody reaction. In the following, the method of this pharmacological test will be explained.
Method: Male wistar rats (9 weeks old) were intradermally administered 0.05 ml of anti-serum against dinitrophenylated ascaris (DNP-As) into two sites on the shaved dorsal skin. 48 hours later, aminoquinolinone derivatives (test compounds) suspended in 0.5% methylcellulose (MC) were given orally at a dose of 100 mg/kg to the animals. 1 hour after administration of Test compounds, the animals were induced anaphylaxis by injection of saline (1 ml) dissolving 1 mg of trinitrophenylated ascaris (TNP-As) and 5 mg of Evans Blue into the tail vein of the animals. 30 minutes after induction of anaphylaxis, animals were anesthetized by ether and killed by bleeding, and were flayed dorsal skin. The leakage of dye was assessed by measuring the diameter (mean of shortest and longest diameter) of the blue spot on the inside surface of dorsal skin. As vehicle control group, only 0.5% MC solution was administered orally, and as positive control group, Tranilast suspended in 0.5% MC were administered orally at a dose of 200 mg/kg to the animals with the same method as the test compounds groups, The inhibition (%) of PCA reaction was calculated according to equation 1 and the result was shown in Table 1. Each experimental group consisted of 5 rats.
In the conditions of this experiment, it was considered that the compound, which inhibited PCA reaction by over forty (40) percent against that in vehicle control group, was evidently effective for immediate type allergy.
Inhibition (%)=(A-B)/A×100 (Equation 1)
A: leakage of dye in vehicle control group
B: leakage of dye in test compound group or positive control group

[5] = Prednisolone 10 mg/kg p.o. 2 hours and 16 hours before challenge
[6] = 5 mg/kg p.o. 1 hour before and 3 hours after challenge
[7] = 10 mg/kg p.o. 1 hour before and 3 hours after challenge
[8] = 20 mg/kg p.o. 1 hour before and 3 hours after challenge

SMILES: C[C@]12C=CC(=O)C=C1CC[C@@H]1[C@@H]2[C@@H](O)C[C@@]2(C)[C@H]1CC[C@]2(O)C(=O)CO [Prednisolone, reference compound]
- inhibition in vivo at 10 mg/kg ([1]; 24 h): 53%
- inhibition (%), immediate type asthma [2, 5]: 35%
- inhibition (%), delayed type asthma [3, 5]: 51%

SMILES: CCCCCCOc1c(O)c2ccc(N)cc2n(C)c1=O [compound 21, 7-amino-3-hexyloxy-4-hydroxy-1-methyl-2(1H)-quinolinone]
- inhibition in vivo at 20 mg/kg [1]: 51%
- inhibition (%), immediate type asthma [2, 6]: 20%
- inhibition (%), immediate type asthma [2, 7]: 30%
- inhibition (%), immediate type asthma [2, 8]: 31%
- inhibition (%), delayed type asthma [3, 6]: 23%
- inhibition (%), delayed type asthma [3, 7]: 39%
- inhibition (%), delayed type asthma [3, 8]: 48%
- inhibition in vivo at 100 mg/kg [4]: 60%

SMILES: C=CCOc1c(O)c2ccc(NC)cc2n(C)c1=O [compound 29, 7-methylamino-3-(2-propenyloxy)-4-hydroxy-1-methyl-2(1H)-quinolinone]
- inhibition in vivo at 20 mg/kg [1]: 48%
- inhibition in vivo at 100 mg/kg [4]: 42%

SMILES: CNc1ccc2c(O)c(OCC=C(C)C)c(=O)n(C)c2c1 [compound 30, 7-methylamino-3-prenyloxy-4-hydroxy-1-methyl-2(1H)-quinolinone]
- inhibition in vivo at 20 mg/kg [1]: 52%
- inhibition in vivo at 100 mg/kg [4]: 44%

SMILES: CNc1ccc2c(O)c(OC/C=C(\C)CCC=C(C)C)c(=O)n(C)c2c1 [compound 31, 7-methylamino-3-geranyloxy-4-hydroxy-1-methyl-2(1H)-quinolinone]
- inhibition in vivo at 20 mg/kg [1]: 45%
- inhibition in vivo at 100 mg/kg [4]: 46%

SMILES: CCCCCCOc1c(O)c2ccc(N)cc2n(CC)c1=O [compound 32, 7-amino-3-hexyloxy-4-hydroxy-1-ethyl-2(1H)-quinolinone]
- inhibition in vivo at 20 mg/kg [1]: 48%
- inhibition in vivo at 100 mg/kg [4]: 44%

SMILES: CCCCOc1c(O)c(=O)n(CCC)c2cc(N)ccc12 [compound 33, 7-amino-3-hydroxy-4-butyloxy-1-propyl-2(1H)-quinolinone]
- inhibition in vivo at 20 mg/kg [1]: 40%
- inhibition in vivo at 100 mg/kg [4]: 40%

SMILES: CCCCCCCCCCOc1c(O)c(=O)n(CCC)c2cc(N)ccc12 [compound 34, 7-amino-3-hydroxy-4-decyloxy-1-propyl-2(1H)-quinolinone]
- inhibition in vivo at 20 mg/kg [1]: 37%
- inhibition in vivo at 100 mg/kg [4]: 40%

SMILES: CCCCCCOc1c(O)c2ccc(N(C)C)cc2n(CCCC)c1=O [compound 35, 7-dimethylamino-3-hexyloxy-4-hydroxy-1-butyl-2(1H)-quinolinone]
- inhibition in vivo at 20 mg/kg [1]: 46%
- inhibition in vivo at 100 mg/kg [4]: 45%

SMILES: CCCCn1c(=O)c(O)c(OC)c2ccc(N(C)C)cc21 [compound 36, 7-dimethylamino-3-hydroxy-4-methoxy-1-butyl-2(1H)-quinolinone]
- inhibition in vivo at 20 mg/kg [1]: 40%
- inhibition in vivo at 100 mg/kg [4]: 41%

SMILES: CCCCn1c(=O)c(OCC=C(C)C)c(O)c2ccc(NC)cc21 [compound 37, 7-methylamino-3-prenyloxy-4-hydroxy-1-butyl-2(1H)-quinolinone]
- inhibition in vivo at 20 mg/kg [1]: 45%
- inhibition in vivo at 100 mg/kg [4]: 42%

SMILES: CCCCn1c(=O)c(O)c(OCC=C(C)C)c2ccc(NC)cc21 [compound 38, 7-methylamino-3-hydroxy-4-prenyloxy-1-butyl-2(1H)-quinolinone]
- inhibition in vivo at 20 mg/kg [1]: 37%
- inhibition in vivo at 100 mg/kg [4]: 40%

SMILES: CCCCCCCCOc1c(O)c2ccc(NC(C)=O)cc2n(C)c1=O [compound 39, 7-acetylamino-3-octyloxy-4-hydroxy-1-methyl-2(1H)-quinolinone]
- inhibition in vivo at 20 mg/kg [1]: 48%
- inhibition in vivo at 100 mg/kg [4]: 50%

SMILES: CCCCCCCCOc1c(O)c2ccc(NC(=O)/C=C/c3cc(OC)c(O)c(OC)c3)cc2n(C)c1=O [compound 41, 7-(3,5-dimethoxy-4-hydroxycinnamoylamino)-3-octyloxy-4-hydroxy-1-methyl-2(1H)-quinolinone]
- inhibition in vivo at 20 mg/kg [1]: 50%
- inhibition (%), immediate type asthma [2, 6]: 26%
- inhibition (%), immediate type asthma [2, 7]: 31%
- inhibition (%), immediate type asthma [2, 8]: 43%
- inhibition (%), delayed type asthma [3, 6]: 39%
- inhibition (%), delayed type asthma [3, 7]: 54%
- inhibition (%), delayed type asthma [3, 8]: 84%
- inhibition in vivo at 100 mg/kg [4]: 53%

SMILES: CCCCCCOc1c(O)c2ccc(NC(=O)/C=C/c3cc(OC)c(O)c(OC)c3)cc2n(C)c1=O [compound 43, 7-(4-hydroxy-3,5-dimethoxycinnamoylamino)-3-hexyloxy-4-hydroxy-1-methyl-2(1H)-quinolinone]
- inhibition in vivo at 20 mg/kg [1]: 53%
- inhibition in vivo at 100 mg/kg [4]: 49%

SMILES: CCCCCCCCOc1c(O)c2ccc(NC(=O)/C=C/c3ccc(OC(C)=O)c(OC)c3)cc2n(C)c1=O [compound 44, 7-(4-acetoxy-3-methoxycinnamoylamino)-3-octyloxy-4-hydroxy-1-methyl-2(1H)-quinolinone]
- inhibition in vivo at 20 mg/kg [1]: 53%
- inhibition in vivo at 100 mg/kg [4]: 50%

SMILES: CCCCCCCCOc1c(O)c2ccc(NC(=O)/C=C/c3ccc(O)c(OC)c3)cc2n(C)c1=O [compound 45, 7-(4-hydroxy-3-methoxycinnamoylamino)-3-octyloxy-4-hydroxy-1-methyl-2(1H)-quinolinone]
- inhibition in vivo at 20 mg/kg [1]: 44%
- inhibition in vivo at 100 mg/kg [4]: 41%

SMILES: CCCCCCCCOc1c(O)c2ccc(NCc3ccccc3)cc2n(C)c1=O [compound 47, 7-benzylamino-3-octyloxy-4-hydroxy-1-methyl-2(1H)-quinolinone]
- inhibition in vivo at 20 mg/kg [1]: 48%
- inhibition in vivo at 100 mg/kg [4]: 40%

SMILES: CCCCCCCCOc1c(O)c2ccc(NCC=C(C)C)cc2n(C)c1=O [compound 48, 7-prenylamino-3-octyloxy-4-hydroxy-1-methyl-2(1H)-quinolinone]
- inhibition in vivo at 20 mg/kg [1]: 53%
- inhibition in vivo at 100 mg/kg [4]: 50%

SMILES: CCCCCCCCOc1c(O)c2ccc(NC(=O)c3ccccc3)cc2n(C)c1=O [compound 49, 7-benzoylamino-3-octyloxy-4-hydroxy-1-methyl-2(1H1)-quinolinone]
- inhibition in vivo at 20 mg/kg [1]: 43%
- inhibition in vivo at 100 mg/kg [4]: 46%
